Results: ChEMBL document CHEMBL3639151, “Inhibitors of bruton's tyrosine kinase” (2014)

Target: Tyrosine-protein kinase BTK (Homo sapiens, UniProt Q06187)
Test: Inhibition Assay: Plates assayed are 96-well polypropylene (Greiner) and 96-well 1.2 μm hydrophilic PVDF filter plates (Millipore). Concentrations reported here are final assay concentrations: 10-100 μM compounds in DMSO (Burdick and Jackson), 5-10 nM Btk enzyme (His-tagged, full-length), 30 μM peptide substrate (Biotin-Aca-[…]-NH2), 100 μM ATP (Sigma), 8 mM imidazole (Sigma, pH 7.2), 8 mM glycerol-2-phosphate (Sigma), 200 μM EGTA (Roche Diagnostics), 1 mM MnCl2 (Sigma), 20 mM MgCl2 (Sigma), 0.1 mg/ml BSA (Sigma), 2 mM DTT (Sigma), 1 μCi 33P ATP (Amersham), 20% streptavidin sepharose beads (Amersham), 50 mM EDTA (Gibco), 2 M NaCl (Gibco), 2 M NaCl w/1% phosphoric acid (Gibco), microscint-20 (Perkin Elmer).

Chain of Tyrosine-protein kinase BTK (Q06187 whole entry): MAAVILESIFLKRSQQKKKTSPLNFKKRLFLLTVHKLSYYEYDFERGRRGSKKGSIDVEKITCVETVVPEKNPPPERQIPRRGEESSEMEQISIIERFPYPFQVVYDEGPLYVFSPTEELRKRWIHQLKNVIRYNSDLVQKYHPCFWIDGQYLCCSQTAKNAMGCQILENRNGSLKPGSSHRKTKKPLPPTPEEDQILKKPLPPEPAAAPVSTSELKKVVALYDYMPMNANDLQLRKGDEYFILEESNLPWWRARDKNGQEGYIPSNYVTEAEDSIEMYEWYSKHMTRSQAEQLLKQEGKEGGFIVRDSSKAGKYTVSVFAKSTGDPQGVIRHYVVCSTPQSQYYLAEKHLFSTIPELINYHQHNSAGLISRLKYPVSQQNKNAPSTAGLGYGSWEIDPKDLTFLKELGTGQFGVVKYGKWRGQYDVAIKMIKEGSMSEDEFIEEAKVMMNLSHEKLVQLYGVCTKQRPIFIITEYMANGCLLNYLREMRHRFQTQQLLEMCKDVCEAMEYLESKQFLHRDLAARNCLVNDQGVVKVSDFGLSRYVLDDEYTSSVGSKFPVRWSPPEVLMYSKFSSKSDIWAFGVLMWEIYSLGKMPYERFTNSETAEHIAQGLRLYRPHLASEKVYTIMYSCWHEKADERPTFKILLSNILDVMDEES

`CC(C)(C)c1cc(F)c2c(=O)n(-c3cccc(-n4cc(C(N)=O)c(Nc5ccc(S(C)(=O)=O)cc5)n4)c3CO)ncc2c1` gave an IC50 of 90 pM.
